According to US10058534B2, “Benzothiophene derivatives and compositions thereof as selective estrogen receptor degraders” (NOVARTIS AG, priority 2013, dated 2018):
Counter-ions that a name gives are not always drawn. Like-named read-outs stand apart in the source and are kept apart here.

Columns and labels:
[1] = target: ERα (Homo sapiens (Human), UniProt P03372); experiment: ERα degradation (MCF7 cells), in-cell Western; type: cell-based; settings: for IC50: inflection point of the degradation in response to ligand concentration
ERα, sequence (P03372 whole entry): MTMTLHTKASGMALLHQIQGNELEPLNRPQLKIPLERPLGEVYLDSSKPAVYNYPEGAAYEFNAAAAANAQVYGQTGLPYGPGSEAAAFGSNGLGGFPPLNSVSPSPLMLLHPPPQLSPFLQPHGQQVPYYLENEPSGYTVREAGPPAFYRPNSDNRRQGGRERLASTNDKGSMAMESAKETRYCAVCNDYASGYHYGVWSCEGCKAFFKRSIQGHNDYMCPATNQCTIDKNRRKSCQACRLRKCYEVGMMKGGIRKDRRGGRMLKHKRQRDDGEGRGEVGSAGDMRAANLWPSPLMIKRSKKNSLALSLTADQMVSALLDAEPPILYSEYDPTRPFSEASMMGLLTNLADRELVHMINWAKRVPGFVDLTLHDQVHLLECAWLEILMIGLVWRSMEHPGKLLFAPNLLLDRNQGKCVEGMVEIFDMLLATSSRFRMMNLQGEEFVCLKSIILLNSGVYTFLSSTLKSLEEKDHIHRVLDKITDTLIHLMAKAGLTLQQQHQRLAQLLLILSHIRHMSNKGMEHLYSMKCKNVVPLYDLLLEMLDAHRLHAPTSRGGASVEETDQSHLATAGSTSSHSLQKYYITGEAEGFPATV
Experimental: ERα Degradation (MCF7 Cells)
(§1) The column titled MCF7 IC50 reports the inflection point of the inhibition of transcription in MCF7 cells as described above. Percentage ERα remaining reports the remaining ERα protein measured at 10 μM concentration of the ligand as described above. The column ERα IC50 reports the inflection point of the degradation in response to the ligand concentration.

[2] = target: ER (endogenous, MCF7 cells) (Homo sapiens (Human), UniProt P03372); experiment: ER transcription assay (MCF7 cells), ERE-luciferase reporter; type: cell-based
ER (endogenous, MCF7 cells), sequence (P03372 whole entry): as above
Excerpt: ER Transcription Assay (MCF7 Cells)
The ER transcription assay is a reporter assay that is based on the ability of ER to induce transcription from a luciferase reporter gene containing estrogen response elements (EREs) in the promoter/enhancer region. When the reporter gene is transfected in MCF7 cells (containing endogenous ER), transcription is reflected by the level of luciferase expression.
A day before transfection, cells are split into a T75 flask at a cell density of 300,000 cells/mL (10 mL total) and allowed to attach overnight in a humidified CO2 incubator at 37° C.
Approximately 20 ug DNA is mixed in OptiMEM (Invitrogen) to a total volume of 650 μL. Following incubation, the OptiMEM-DNA mixture is added to the OptiMEM-Lipofectin mix and incubated for 15 minutes at 37° C. The DNA-Lipofectin mixture is then added directly to the T75 flask and the flask is returned to the incubator.
Normally, DMSO (used as a vehicle) is included to achieve a final concentration of 0.1% when added to the cells. Transfected cells are trypsinized, resuspended in DMEM/F12/10% charcoal-stripped serum and added to the 96-well plate at 25,000 cells/well in 90 μL of media. The plate is then returned to the incubator for 24 hours.
After incubation with compounds for 24 hours, Firefly and Renilla luciferase activities are measured to determine ER transcriptional activity. Media is removed from 96-well plates by decanting and blotting on paper towels.
One second total read time after a one second delay.
One second total read time after one second delay. If Firefly luciferase signal is high, Renilla assay must be done an hour after the Firefly assay due to incomplete squelching of Firefly signal.
as §1

[3] = remaining ERα protein at 10 μM ligand, MCF7 cells, relative to DMSO control
[4] = inflection point of the inhibition of transcription in MCF7 cells, 0.1 nM estradiol, 24 hours, read-out: MCF7 IC50

SMILES	IC50 ([1]; MCF7 cells) [nM]	% ERα remaining [1, 3] [%]	IC50 [2, 4] [nM]	% ERα remaining [1] [%]	IC50 ([2]; read-out: MCF7 IC50) [nM]	ER Percentage remaining ([1]; degradation potential, comparison of linker length between phenyl and -C(O)OH) [Percentage]	IC50 ([2]; antagonist activity, comparison of linker length between phenyl and -C(O)OH, read-out: SERD IC50 MCF7) [nM]
CC(F)(F)c1ccccc1-c1sc2cc(O)ccc2c1Oc1ccc(/C=C/C(=O)O)cc1 [Example 122, (E)-3-(4-((2-(2-(1,1-difluoroethyl)phenyl)-6-hydroxybenzo[b]thiophen-3-yl)oxy)phenyl)acrylic acid]	0.2	15	11	–	–	–	–
O=C(O)/C=C/c1ccc(Oc2c(-c3ccccc3CN3CCCC3)sc3cc(O)ccc23)cc1 [Example 92, (E)-3-(4-((6-hydroxy-2-(2-(pyrrolidin-1-ylmethyl)phenyl)benzo [b]thiophen-3-yl)oxy)phenyl)acrylic acid]	–	16	29	–	–	–	–
COC(=O)/C=C/c1ccc(Oc2c(-c3ccccc3)sc3cc(O)ccc23)cc1 [Example 44, (E)-methyl 3-(4-((6-hydroxy-2-phenylbenzo[b]thiophen-3-yl)oxy)phenyl)-acrylate]	–	25	10000	–	–	–	–
C[C@@H](O)c1ccccc1-c1sc2cc(O)ccc2c1Oc1ccc(/C=C/C(=O)O)cc1 [Example 116, (R,E)-3-(4-((6-hydroxy-2-(2-(1-hydroxyethyl)phenyl)benzo[b]thiophen-3-yl)oxy)phenyl)acrylic acid]	12	24	306	–	–	–	–
CCC(C)c1ccccc1-c1sc2cc(O)ccc2c1Oc1ccc(/C=C/C(=O)O)cc1 (centres unmarked) [Example 86, (E)-3-(4-((2-(2-(sec-butyl)phenyl)-6-hydroxybenzo[b]thiophen-3-yl)oxy)phenyl)acrylic acid]	0.2	12	7	–	–	–	–
O=C(O)/C=C/c1ccc(Oc2c(-c3ccccc3CN3CCC3)sc3cc(O)ccc23)cc1 [Example 97, (E)-3-(4-((2-(2-(azetidin-1-ylmethyl)phenyl)-6-hydroxybenzo[b]thiophen-3-yl)oxy)phenyl)acrylic acid]	25	18	292	–	–	–	–
CC(C)c1ccccc1-c1sc2cc(OC(=O)[C@@H](N)C(C)C)ccc2c1Oc1ccc(/C=C/C(=O)O)cc1 [Example 85, (S,E)-3-(4-((6-((2-amino-3-methylbutanoyl)oxy)-2-(2-isopropylphenyl)benzo [b]thiophen-3-yl)oxy)phenyl)acrylic acid hydrochloride]	–	–	–	12	7	–	–
CC(C)c1ccccc1-c1sc2cc(O)ccc2c1Oc1ccc(CCC(=O)O)cc1 [Example 93, 3-(4-((6-hydroxy-2-(2-isopropylphenyl)benzo [b]thiophen-3-yl)oxy)phenyl)propanoic acid]	1.6	25	72	–	–	–	–
CC/C(=C\c1ccc(Oc2c(-c3ccc(O)cc3)sc3cc(O)ccc23)cc1)C(=O)O [Example 114, (E)-2-(4-((6-hydroxy-2-(4-hydroxyphenyl)benzo [b]thiophen-3-yl)oxy)benzylidene) butanoic acid]	6.4	35	216	–	–	–	–
CN(C)c1ccccc1-c1sc2cc(O)ccc2c1Oc1ccc(/C=C/C(=O)O)cc1 [Example 125, (E)-3-(4-((2-(2-(dimethylamino)phenyl)-6-hydroxybenzo[b]thiophen-3-yl)oxy)phenyl)acrylic acid]	–	11	124	–	–	–	–
Cc1nnc(/C=C/c2ccc(Oc3c(-c4ccccc4C(C)C)sc4cc(O)ccc34)cc2)[nH]1 [Example 105, (E)-2-(2-isopropylphenyl)-3-(4-(2-(5-methyl-4H-1,2,4-triazol-3-yl)vinyl)phenoxy)benzo [b]thiophen-6-ol]	1.1	25	14	–	–	–	–
CC(C)c1ccccc1-c1sc2cc(O)ccc2c1N(C)c1ccc(/C=C/C(=O)O)cc1 [Example 119, (E)-3-(4-((6-hydroxy-2-(2-isopropylphenyl)benzo [b]thiophen-3-yl)(methyl)amino)phenyl) acrylic acid]	6.2	19	109	–	–	–	–
O=C(O)/C=C/c1ccc(Oc2c(-c3cccc(F)c3C(F)(F)F)sc3cc(O)ccc23)cc1 [Example 90, (E)-3-(4-((2-(3-fluoro-2-(trifluoromethyl)phenyl)-6-hydroxybenzo[b]thiophen-3-yl)oxy)phenyl)acrylic acid]	1.2	15	26	–	–	–	–
C#Cc1ccccc1-c1sc2cc(O)ccc2c1Oc1ccc(/C=C/C(=O)O)cc1 [Example 132, (E)-3-(4-((2-(2-ethynylphenyl)-6-hydroxybenzo[b]thiophen-3-yl)oxy)phenyl)acrylic acid]	–	16	890	–	–	–	–
CC(=O)/C=C/c1ccc(Oc2c(-c3ccccc3C(C)C)sc3cc(O)ccc23)cc1 [Example 78, (E)-4-(4-((6-hydroxy-2-(2-isopropylphenyl)benzo[b]thiophen-3-yl)oxy)phenyl)but-3-en-2-one]	–	72	6	–	–	–	–
O=C(O)c1ccc(Oc2c(-c3ccc(O)cc3)sc3cc(O)ccc23)cc1 [reference compound]	–	–	–	–	–	57	10000
CC(C)c1ccccc1-c1sc2c(F)c(O)ccc2c1Oc1ccc(/C=C/C(=O)O)cc1 [Example 101, (E)-3-(4-((7-fluoro-6-hydroxy-2-(2-isopropylphenyl)benzo [b]thiophen-3-yl)oxy)phenyl)acrylic acid]	0.2	18	4.2	–	–	–	–
CC(C)c1ncoc1-c1sc2cc(O)ccc2c1Oc1ccc(/C=C/C(=O)O)cc1 [Example 115, (E)-3-(4-((6-hydroxy-2-(4-isopropyloxazol-5-yl)benzo[b]thiophen-3-yl)oxy)phenyl)acrylic acid]	5.3	15	267	–	–	–	–
CC(=O)Oc1ccc2c(Oc3ccc(/C=C/C(=O)O)cc3)c(-c3ccccc3C(C)C)sc2c1 [Example 82, (E)-3-(4-((6-acetoxy-2-(2-isopropylphenyl)benzo[b]thiophen-3-yl)oxy)phenyl)acrylic acid]	–	21	11	–	–	–	–
CCOC(=O)/C=C/c1ccc(Oc2c(-c3ccccc3C(C)C)sc3cc(O)ccc23)cc1 [Example 137, (E)-ethyl 3-(4-((6-hydroxy-2-(2-isopropylphenyl)benzo [b]thiophen-3-yl)oxy)phenyl)acrylate]	–	15	9	–	–	–	–
COCCC(=O)Oc1ccc2c(Oc3ccc(/C=C/C(=O)O)cc3)c(-c3ccccc3C(C)C)sc2c1 [Example 83, (E)-3-(4-((2-(2-isopropylphenyl)-6-((3-methoxypropanoyl)oxy)benzo[b]thiophen-3-yl)oxy)phenyl)acrylic acid]	–	13	15	–	–	–	–
